Assay results taken from ChEMBL document CHEMBL1155401, “The development of benzimidazoles as selective rho kinase inhibitors” (Bioorg Med Chem Lett, 2010).

What was measured:
[1] = Inhibition of ROCK by enzyme-coupled luciferase-kinase assay
[2] = Inhibition of PKA
[3] = Selectivity ratio of IC50 for PKA to IC50 to ROCK
[4] = target: Cytochrome P450 2C9 (Homo sapiens, UniProt P11712); assay: Inhibition of CYP2C9; type: ADME
[5] = target: Cytochrome P450 2D6 (Homo sapiens, UniProt P10635); assay: Inhibition of CYP2D6; type: ADME
[6] = target: Cytochrome P450 3A4 (Homo sapiens, UniProt P08684); assay: Inhibition of CYP3A4; type: ADME
[7] = target: T1, Cytochrome P450 1A2 (Homo sapiens, UniProt P05177); assay: Inhibition of CYP1A2; type: ADME
T1 sequence (P05177 whole entry): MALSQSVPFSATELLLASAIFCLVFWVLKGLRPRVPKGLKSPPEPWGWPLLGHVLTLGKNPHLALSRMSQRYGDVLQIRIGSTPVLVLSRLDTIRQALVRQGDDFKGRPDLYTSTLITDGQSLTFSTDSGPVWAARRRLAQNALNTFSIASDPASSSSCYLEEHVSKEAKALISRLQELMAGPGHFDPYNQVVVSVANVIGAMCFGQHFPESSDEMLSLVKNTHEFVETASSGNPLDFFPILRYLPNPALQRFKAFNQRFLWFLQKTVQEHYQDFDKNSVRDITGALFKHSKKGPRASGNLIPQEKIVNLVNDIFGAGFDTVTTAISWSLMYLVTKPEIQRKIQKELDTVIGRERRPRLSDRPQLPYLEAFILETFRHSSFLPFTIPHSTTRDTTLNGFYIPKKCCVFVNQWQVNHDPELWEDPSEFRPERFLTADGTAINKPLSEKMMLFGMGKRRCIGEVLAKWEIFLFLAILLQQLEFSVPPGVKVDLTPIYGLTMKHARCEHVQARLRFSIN

[8] = tested on: Rattus norvegicus; assay: AUC in rat at 2 mg/kg, po; type: ADME, organism-based, Plasma; set-up: dose 2 mg/kg, route oral; details: in vivo
[9] = Inhibition of ROCK by myosin light chain phosphorylation assay

Cytochrome P450 2C9, sequence (P11712 whole entry): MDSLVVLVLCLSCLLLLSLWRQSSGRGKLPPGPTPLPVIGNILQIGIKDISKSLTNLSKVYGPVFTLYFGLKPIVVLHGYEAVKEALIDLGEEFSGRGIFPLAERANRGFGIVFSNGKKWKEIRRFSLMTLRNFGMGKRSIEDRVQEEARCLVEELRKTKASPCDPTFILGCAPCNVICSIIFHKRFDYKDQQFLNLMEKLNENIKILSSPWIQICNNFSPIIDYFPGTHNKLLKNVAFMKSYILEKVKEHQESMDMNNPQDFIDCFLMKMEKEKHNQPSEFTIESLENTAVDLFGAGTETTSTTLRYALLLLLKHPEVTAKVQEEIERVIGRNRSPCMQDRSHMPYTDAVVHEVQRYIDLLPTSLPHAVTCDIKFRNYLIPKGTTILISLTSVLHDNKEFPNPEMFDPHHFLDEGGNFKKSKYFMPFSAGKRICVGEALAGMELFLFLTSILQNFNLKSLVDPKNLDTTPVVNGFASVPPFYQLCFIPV
Cytochrome P450 3A4, sequence (P08684 whole entry): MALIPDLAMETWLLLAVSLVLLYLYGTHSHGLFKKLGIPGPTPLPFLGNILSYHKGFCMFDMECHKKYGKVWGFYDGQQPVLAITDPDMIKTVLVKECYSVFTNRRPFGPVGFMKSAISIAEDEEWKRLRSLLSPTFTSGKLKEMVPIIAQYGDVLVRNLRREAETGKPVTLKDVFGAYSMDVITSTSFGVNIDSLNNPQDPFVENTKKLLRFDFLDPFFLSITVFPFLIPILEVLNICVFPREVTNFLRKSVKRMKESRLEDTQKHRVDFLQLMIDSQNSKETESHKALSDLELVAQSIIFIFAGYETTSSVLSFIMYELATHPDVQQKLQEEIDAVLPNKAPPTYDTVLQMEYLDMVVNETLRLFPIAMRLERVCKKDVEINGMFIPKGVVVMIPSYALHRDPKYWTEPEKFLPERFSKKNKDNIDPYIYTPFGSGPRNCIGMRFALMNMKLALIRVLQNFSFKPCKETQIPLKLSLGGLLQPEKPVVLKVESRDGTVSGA
Cytochrome P450 2D6, sequence (P10635 whole entry): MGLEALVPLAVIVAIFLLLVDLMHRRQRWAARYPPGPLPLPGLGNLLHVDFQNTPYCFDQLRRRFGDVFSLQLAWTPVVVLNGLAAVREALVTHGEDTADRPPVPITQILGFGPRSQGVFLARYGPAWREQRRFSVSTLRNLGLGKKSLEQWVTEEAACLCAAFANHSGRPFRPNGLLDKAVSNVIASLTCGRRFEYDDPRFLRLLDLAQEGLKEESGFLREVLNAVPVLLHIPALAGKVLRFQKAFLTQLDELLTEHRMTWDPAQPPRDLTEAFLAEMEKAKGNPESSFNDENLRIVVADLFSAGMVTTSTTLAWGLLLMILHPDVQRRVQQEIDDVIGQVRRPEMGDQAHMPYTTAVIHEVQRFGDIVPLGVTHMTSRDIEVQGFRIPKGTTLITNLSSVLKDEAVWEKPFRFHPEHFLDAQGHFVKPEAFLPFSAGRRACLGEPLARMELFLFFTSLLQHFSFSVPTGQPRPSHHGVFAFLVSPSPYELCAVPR

`c1ccc(Cn2c(C3COc4ccccc4O3)nc3ccc(-c4ccncc4)cc32)cc1` (stereo unspecified) gave an IC50 [1] of 190 nM, an IC50 [2] of 1000 nM and a Ratio IC50 [3] of 5. The Activity [4] was “Active”, the Activity [5] was “Active” and the Activity [6] was “Active”. For the same molecule, the Activity [7] was “Active”.

Molecule `COCCn1c(C2COc3ccccc3O2)nc2ccc(-c3ccncc3)cc21` (stereo unspecified) has an IC50 [1] of 11 nM, an IC50 [2] of 310 nM and a Ratio IC50 [3] of 28. For the same molecule, the Activity [4] was “Active”, the Activity [5] was “Active” and the Activity [6] was “Active”. The Activity [7] was “Active”.

Work on `COc1ccc2c(c1)OCC(c1nc3ccc(-c4ccnc(N)n4)cc3[nH]1)C2` (stereo unspecified) yielded an IC50 [1] of 95 nM, an IC50 [2] of 435 nM and a Ratio IC50 [3] of 4.6.

`Nc1nccc(-c2ccc3nc(C4COc5ccc(C(=O)NCc6cccnc6)cc5C4)[nH]c3c2)n1` (stereo unspecified) showed an IC50 [1] of 0.78 nM, an IC50 [2] of 82 nM and a Ratio IC50 [3] of 105.

`Nc1nccc(-c2ccc3nc(C4COc5ccccc5C4)[nH]c3c2)n1` (stereo unspecified) gave an IC50 [1] of 8 nM, an IC50 [2] of 195 nM and a Ratio IC50 [3] of 24.

In the case of `Cn1c(C2COc3ccccc3O2)nc2cc(-c3ccncc3)ccc21` (stereo unspecified), the IC50 [1] is reported as 1780 nM, the IC50 [2] is reported as 3130 nM and the Ratio IC50 [3] is reported as 2. The Activity [4] was “Active”, the Activity [5] was “Active” and the Activity [6] was “Active”. For the same molecule, the Activity [7] was “Active”.

`c1ccc2c(c1)OCC(c1nc3ccc(-c4ccncc4)cc3n1CC1CC1)O2` (stereo unspecified) gave an IC50 [1] of 24 nM, an IC50 [2] of 850 nM and a Ratio IC50 [3] of 35. For the same molecule, the Activity [4] was “Active”, the Activity [5] was “Active” and the Activity [6] was “Active”. The Activity [7] was “Active”.

Molecule `COc1cccc2c1CC(c1nc3ccc(-c4ccnc(N)n4)cc3[nH]1)CO2` (stereo unspecified) has an IC50 [1] of 25 nM, an IC50 [2] of 310 nM and a Ratio IC50 [3] of 12.

Work on `Cn1c(C2COc3ccccc3O2)nc2ccc(-c3ccncc3)cc21` (stereo unspecified) yielded an IC50 [1] of 15 nM, an IC50 [2] of 1960 nM and a Ratio IC50 [3] of 131. The Activity [4] was “Active”, the Activity [5] was “Active” and the Activity [6] was “Active”. For the same molecule, the Activity [7] was “Active”.

`COc1ccc2c(c1)CC(c1nc3c(OCCN(C)C)cc(-c4ccncc4)cc3[nH]1)CO2` (stereo unspecified) showed an IC50 [1] of 440 nM, an IC50 [2] of over 20000 nM and a Ratio IC50 [3] of over 45. For the same molecule, the Activity [4] was “Active”, the Activity [5] was “Active” and the Activity [6] was “Active”. The Activity [7] was “Active”.

In the case of `COc1cccc2c1OCC(c1nc3ccc(-c4ccnc(N)n4)cc3[nH]1)C2` (stereo unspecified), the IC50 [1] is reported as 256 nM, the IC50 [2] is reported as 232 nM and the Ratio IC50 [3] is reported as 0.9.

`c1ccc2c(c1)CC(c1nc3ccc(-c4ccncc4)cc3[nH]1)CO2` (stereo unspecified) gave an IC50 [1] of 1.7 nM, an IC50 [2] of 252 nM and a Ratio IC50 [3] of 148. The Activity [4] was “Active”, the Activity [5] was “Active” and the Activity [6] was “Active”. The Activity [7] was “Active”.

Molecule `c1ccc2c(c1)OCC(c1nc3ccc(-c4ccncc4)cc3n1CCN1CCOCC1)O2` (stereo unspecified) has an IC50 [1] of 130 nM, an IC50 [2] of 6120 nM and a Ratio IC50 [3] of 47. The Activity [4] was “Active”, the Activity [5] was “Active” and the Activity [6] was “Active”. For the same molecule, the Activity [7] was “Active”.

In the case of `COc1c(-c2ccncc2)ccc2nc(C3COc4ccccc4C3)[nH]c12` (stereo unspecified), the IC50 [1] is reported as 4.1 nM, the IC50 [2] is reported as 187 nM and the Ratio IC50 [3] is reported as 46. For the same molecule, the Activity [4] was “Active”, the Activity [5] was “Active” and the Activity [6] was “Active”. The Activity [7] was “Active”.

Molecule `COc1ccc2c(c1)CC(c1nc3ccc(-c4ccnc(N)n4)cc3[nH]1)CO2` (stereo unspecified) has an IC50 [1] of 1.7 nM, an IC50 [2] of 485 nM and a Ratio IC50 [3] of 285. It also gave an AUC [8] of 1.9 µM·h and an IC50 [9] of 85 nM.

Work on `Nc1nccc(-c2ccc3nc(C4COc5ccc(C(=O)NCCc6ccccn6)cc5C4)[nH]c3c2)n1` (stereo unspecified) yielded an IC50 [1] of 0.43 nM, an IC50 [2] of 305 nM and a Ratio IC50 [3] of 709.
